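Assay format: 96-well plates, 48-hour exposure. At the GI50, growth is halved.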 Active and inactive are the calls of the source. Rule as the data show it: active = GI50 up to about 1.1 µM and inactive = higher.
Legend:
Test in all cases: DTP human tumour cell line panel, 48 h
HCC 2998 = tested on: HCC 2998
M14 = tested on: M14
K562 = tested on: K562
SW-620 = tested on: SW-620
Hs-578T = tested on: Hs-578T
HL-60 = tested on: HL-60
BT-549 = tested on: BT-549
NCI-H226 = tested on: NCI-H226
UACC-257 = tested on: UACC-257
MCF7 = tested on: MCF7
SK-MEL-2 = tested on: SK-MEL-2
RXF 393 = tested on: RXF 393
SF-539 = tested on: SF-539
786-0 = tested on: 786-0
EKVX = tested on: EKVX
U-251 = tested on: U-251
SNB-75 = tested on: SNB-75
OVCAR-5 = tested on: OVCAR-5
IGROV-1 = tested on: IGROV-1

Measured: GI50

c1ccc(CSc2nnc3c4ccccc4c4ccccc4c3n2)cc1
inactive: HCC 2998 51.1 µM | M14 > 100 µM | K562 14.8 µM | SW-620 38.2 µM | Hs-578T 36.2 µM | HL-60 > 36.2 µM | BT-549 50 µM | NCI-H226 45.6 µM | UACC-257 > 100 µM | MCF7 29.1 µM | SK-MEL-2 36.6 µM | RXF 393 > 52.1 µM | SF-539 31.4 µM | 786-0 34.8 µM | EKVX 27.2 µM | U-251 33.3 µM | SNB-75 8.73 µM | OVCAR-5 > 100 µM

O=C(CCc1ccc(O)c(O)c1)NCCc1cc(O)cc(O)c1
inactive: HCC 2998 > 100 µM | M14 > 100 µM | K562 25.7 µM | SW-620 > 100 µM | Hs-578T > 100 µM | IGROV-1 > 100 µM | HL-60 > 100 µM | BT-549 > 100 µM | NCI-H226 > 100 µM | UACC-257 > 100 µM | MCF7 66.8 µM | SK-MEL-2 > 100 µM | RXF 393 > 100 µM | SF-539 > 100 µM | 786-0 > 100 µM | EKVX > 100 µM | U-251 > 100 µM | SNB-75 > 100 µM | OVCAR-5 > 100 µM

Cc1cc(C)c2c(c1)CC1(Cc3c(C)cc(C)cc3C1=O)C2=O (stereo not given)
inactive: HCC 2998 > 100 µM | M14 > 100 µM | K562 > 100 µM | SW-620 > 100 µM | Hs-578T > 100 µM | IGROV-1 84.5 µM | HL-60 > 100 µM | BT-549 > 100 µM | NCI-H226 > 100 µM | UACC-257 > 100 µM | MCF7 > 100 µM | SK-MEL-2 > 100 µM | RXF 393 > 100 µM | SF-539 35.8 µM | 786-0 > 100 µM | EKVX > 100 µM | U-251 > 100 µM | SNB-75 > 100 µM | OVCAR-5 > 100 µM

O=c1c2c3c(sc2nc2n1sc1nc4sc5c(c4c(=O)n12)CCCC5)CCCC3
inactive: HCC 2998 36.1 µM | M14 98.2 µM | K562 25.1 µM | SW-620 28.8 µM | Hs-578T 39.6 µM | IGROV-1 > 100 µM | HL-60 27.2 µM | BT-549 21.9 µM | NCI-H226 > 50.7 µM | UACC-257 > 96.8 µM | MCF7 23.8 µM | SK-MEL-2 > 100 µM | RXF 393 21 µM | SF-539 56 µM | 786-0 17.3 µM | EKVX 12 µM | U-251 > 83 µM | OVCAR-5 > 100 µM

COC(=O)Nc1nc2cc(C(=O)c3ccc[nH]3)ccc2[nH]1
active: M14 0.571 µM | K562 0.387 µM | SW-620 0.359 µM | HL-60 0.0689 µM | MCF7 0.341 µM | SK-MEL-2 0.353 µM | RXF 393 0.0895 µM | U-251 0.721 µM | SNB-75 0.235 µM
inactive: HCC 2998 2.55 µM | Hs-578T 1.54 µM | IGROV-1 1.7 µM | BT-549 > 100 µM | NCI-H226 1.16 µM | SF-539 2.4 µM | 786-0 1.69 µM | OVCAR-5 > 100 µM

CC(C)C(/C=C/c1ccc(Cl)cc1)=N\NC(=O)N/N=C(/C=C/c1ccc(Cl)cc1)C(C)C
inactive: HCC 2998 83.4 µM | M14 24.2 µM | K562 47.8 µM | SW-620 82 µM | Hs-578T 20.1 µM | IGROV-1 28.8 µM | HL-60 > 100 µM | BT-549 34.4 µM | NCI-H226 30.8 µM | UACC-257 57.5 µM | MCF7 > 100 µM | SK-MEL-2 26.4 µM | RXF 393 20.7 µM | SF-539 16.7 µM | 786-0 17.6 µM | EKVX 21.4 µM | U-251 16.9 µM | SNB-75 21.7 µM | OVCAR-5 > 100 µM

O=C(c1cc2ccccc2cc1O)N1CCCCC1
inactive: HCC 2998 21.2 µM | M14 18.1 µM | K562 21.6 µM | SW-620 48 µM | Hs-578T 46 µM | IGROV-1 13.5 µM | HL-60 20.4 µM | BT-549 35.2 µM | NCI-H226 17.8 µM | UACC-257 53 µM | MCF7 26.4 µM | SK-MEL-2 17.3 µM | RXF 393 51.1 µM | SF-539 37.3 µM | 786-0 59.4 µM | EKVX 20.3 µM | U-251 52.4 µM | SNB-75 31.5 µM

Cc1nc(-c2ccc(Cl)cc2)cn2c1nc1ccccc12
inactive: HCC 2998 > 100 µM | M14 > 72.3 µM | K562 > 72.3 µM | SW-620 > 100 µM | Hs-578T > 100 µM | IGROV-1 11.1 µM | HL-60 > 31.6 µM | BT-549 > 93.5 µM | NCI-H226 > 100 µM | UACC-257 > 100 µM | SK-MEL-2 > 100 µM | RXF 393 > 100 µM | SF-539 > 61.4 µM | 786-0 > 100 µM | EKVX > 100 µM | U-251 > 100 µM | SNB-75 > 100 µM | OVCAR-5 > 31 µM
active: MCF7 0.647 µM

O=C(SC1=NCCN1)c1cccc2ccccc12
inactive: HCC 2998 > 100 µM | M14 67.6 µM | K562 25.4 µM | SW-620 33.8 µM | Hs-578T 81.3 µM | IGROV-1 63.7 µM | HL-60 23.8 µM | BT-549 64.7 µM | NCI-H226 32.3 µM | UACC-257 28.9 µM | MCF7 50.9 µM | SK-MEL-2 > 100 µM | RXF 393 53.7 µM | SF-539 > 100 µM | 786-0 67.5 µM | EKVX 28.3 µM | U-251 45.5 µM | SNB-75 22.8 µM | OVCAR-5 > 100 µM

CCOC(=O)N1CCN(c2ccc3c(C)cc(C)nc3n2)CC1
inactive: HCC 2998 > 100 µM | M14 > 100 µM | K562 > 100 µM | SW-620 > 100 µM | Hs-578T > 100 µM | IGROV-1 > 100 µM | HL-60 > 100 µM | BT-549 > 100 µM | NCI-H226 > 100 µM | UACC-257 > 100 µM | MCF7 > 100 µM | SK-MEL-2 > 100 µM | RXF 393 > 100 µM | SF-539 > 100 µM | 786-0 > 100 µM | EKVX > 100 µM | U-251 > 100 µM | SNB-75 > 100 µM | OVCAR-5 > 100 µM

N#Cc1c(C#N)c(-c2cccc([N+](=O)[O-])c2)n(-c2ccccc2)c1N
inactive: HCC 2998 > 100 µM | M14 > 100 µM | K562 > 100 µM | SW-620 > 100 µM | Hs-578T 55.1 µM | IGROV-1 89.1 µM | HL-60 > 100 µM | BT-549 5.11 µM | NCI-H226 18 µM | UACC-257 > 100 µM | MCF7 > 100 µM | SK-MEL-2 > 100 µM | RXF 393 41.7 µM | SF-539 21.1 µM | 786-0 51.5 µM | EKVX > 100 µM | U-251 44.8 µM | SNB-75 3.33 µM | OVCAR-5 > 100 µM

COc1ccc(CCNC(=O)Cc2ccccc2CCO)cc1OC
inactive: HCC 2998 > 100 µM | M14 > 100 µM | K562 > 100 µM | SW-620 > 100 µM | Hs-578T > 100 µM | IGROV-1 > 100 µM | HL-60 > 100 µM | BT-549 > 100 µM | NCI-H226 > 100 µM | UACC-257 > 100 µM | MCF7 > 100 µM | SK-MEL-2 > 100 µM | RXF 393 > 100 µM | SF-539 > 100 µM | 786-0 > 100 µM | EKVX > 100 µM | U-251 > 100 µM | SNB-75 > 100 µM | OVCAR-5 > 100 µM

Cc1cc2c(cc1C)OC(=O)CC2
inactive: HCC 2998 > 100 µM | M14 > 100 µM | K562 > 100 µM | SW-620 > 100 µM | Hs-578T > 100 µM | IGROV-1 > 100 µM | HL-60 > 100 µM | BT-549 > 100 µM | NCI-H226 > 100 µM | UACC-257 > 100 µM | MCF7 > 100 µM | SK-MEL-2 > 100 µM | RXF 393 > 100 µM | SF-539 > 100 µM | 786-0 > 100 µM | EKVX > 100 µM | U-251 > 100 µM | SNB-75 > 100 µM | OVCAR-5 > 100 µM

CC(=O)NNc1nc(C)c(C(/C=C/c2cccc([N+](=O)[O-])c2)=N/NC(=S)NN)s1
inactive: HCC 2998 > 100 µM | M14 > 100 µM | K562 > 100 µM | SW-620 > 100 µM | Hs-578T > 100 µM | IGROV-1 > 100 µM | HL-60 > 100 µM | BT-549 > 100 µM | NCI-H226 > 100 µM | UACC-257 > 100 µM | MCF7 > 100 µM | SK-MEL-2 > 100 µM | RXF 393 > 100 µM | SF-539 > 100 µM | 786-0 > 100 µM | EKVX 52.1 µM | U-251 > 100 µM | SNB-75 > 100 µM | OVCAR-5 > 100 µM

CC(C)(C)c1cc(C(=O)/C=C/c2ccc3c(c2)CCO3)cc(C(C)(C)C)c1O
inactive: HCC 2998 1.89 µM | M14 1.17 µM | SW-620 1.13 µM | Hs-578T 1.32 µM | IGROV-1 2.29 µM | BT-549 1.8 µM | NCI-H226 2.24 µM | MCF7 1.23 µM | SK-MEL-2 1.29 µM | OVCAR-5 2.39 µM
active: K562 0.938 µM | HL-60 0.951 µM | UACC-257 0.792 µM | RXF 393 0.216 µM | SF-539 0.619 µM | 786-0 1.12 µM | EKVX 0.729 µM | U-251 0.94 µM | SNB-75 0.733 µM

— ChEMBL document CHEMBL1201862, “PubChem BioAssay data set” (2004)
